Data: patent publication US20230265116A1, “DEGRADATION OF (EGFR) BY CONJUGATION OF EGFR INHIBITORS WITH E3 LIGASE LIGAND AND METHODS OF USE” (BEIGENE, LTD., priority 2020, published 2023)

Target: T1, EGFR (HCC827 cells) (Homo sapiens, UniProt P00533, DEL746-750)
T1 construct: endogenous in cells; host or cells: HCC827
Experiment: EGFR degradation HTRF assay, HCC827 cells
Format: cell-based
Conditions: HCC827, 16h treatment; for Dmax: maximum percentage of degradation
Description: BaF3 WT(wild type), BaF3-LTC(L858R/T790M/C797S) and BaF3-DTC(Del19/T790M/C797S) cells are treated with compounds diluted in 0.2% DMSO cell culture medium and incubate for 16h, 37° C., 5% CO2, H1975-#36, H1975-#28, H1975-#23 and HCC827 cells are treated with compounds diluted in 0.2% DMSO cell culture medium on day 2, incubate for 16h, 37° C., 5% CO2.the final concentriation of compounds in all assay is start with 10 uM, 5-fold dilution, total 8 doses were included.
After 16h treatment, add HTRF lysis buffer to each well; seal the plate and incubate 1 hour at room temperature on a plate shaker; Once the cells are lysed, 16 μL of cell lysate are transferred to a PE 384-well HTRF detection plate; 4 μL of pre-mixed HTRF antibodies are added to each well; Cover the plate with a plate sealer, spin 1000 rpm for 1 min, Incubate overnight at room temperature; Read on BMG PheraStar with HTRF protocol (337 nm-665 nm-620 nm).
The inhibition (degradation) percentage of the compound was calculated by the following equation: Inhibition percentage of Compound=100-100×(Signal-low control)/(High control-low control), wherein signal=each test compound group
High control=Cell group with added DMSO and without compound, indicating microplate readings without EGFR degradation;
Dmax is the maximum percentage of inhibition (degradation).
The IC50 (DC50) value of a compound can be obtained by fitting the following equation
Y=Bottom+(TOP−Bottom)/(1+((IC50/X)^hillslope))
Wherein, X and Y are known values, and IC50, Hillslope, Top and Bottom are the parameters obtained by fitting with software. Y is the inhibition percentage (calculated from the equation), X is the concentration of the compound; IC50 is the concentration of the compound when the 50% inhibition is reached. The smaller the IC50 value is, the stronger the inhibitory ability of the compound is. Vice versa, the higher the IC50 value is, the weaker the inhibitory ability of the compound is; Hillslope represents the slope of the fitted curve, generally around 1*; Bottom represents the minimum value of the curve obtained by data fitting, which is generally 0%±20%; Top represents the maximum value of the curve obtained by data fitting, which is generally 100%±20%. The experimental data were fitted by calculating and analyzing with Dotmatics data analysis software.

T1 sequence (P00533 with tags, fused parts or gaps DEL746-750): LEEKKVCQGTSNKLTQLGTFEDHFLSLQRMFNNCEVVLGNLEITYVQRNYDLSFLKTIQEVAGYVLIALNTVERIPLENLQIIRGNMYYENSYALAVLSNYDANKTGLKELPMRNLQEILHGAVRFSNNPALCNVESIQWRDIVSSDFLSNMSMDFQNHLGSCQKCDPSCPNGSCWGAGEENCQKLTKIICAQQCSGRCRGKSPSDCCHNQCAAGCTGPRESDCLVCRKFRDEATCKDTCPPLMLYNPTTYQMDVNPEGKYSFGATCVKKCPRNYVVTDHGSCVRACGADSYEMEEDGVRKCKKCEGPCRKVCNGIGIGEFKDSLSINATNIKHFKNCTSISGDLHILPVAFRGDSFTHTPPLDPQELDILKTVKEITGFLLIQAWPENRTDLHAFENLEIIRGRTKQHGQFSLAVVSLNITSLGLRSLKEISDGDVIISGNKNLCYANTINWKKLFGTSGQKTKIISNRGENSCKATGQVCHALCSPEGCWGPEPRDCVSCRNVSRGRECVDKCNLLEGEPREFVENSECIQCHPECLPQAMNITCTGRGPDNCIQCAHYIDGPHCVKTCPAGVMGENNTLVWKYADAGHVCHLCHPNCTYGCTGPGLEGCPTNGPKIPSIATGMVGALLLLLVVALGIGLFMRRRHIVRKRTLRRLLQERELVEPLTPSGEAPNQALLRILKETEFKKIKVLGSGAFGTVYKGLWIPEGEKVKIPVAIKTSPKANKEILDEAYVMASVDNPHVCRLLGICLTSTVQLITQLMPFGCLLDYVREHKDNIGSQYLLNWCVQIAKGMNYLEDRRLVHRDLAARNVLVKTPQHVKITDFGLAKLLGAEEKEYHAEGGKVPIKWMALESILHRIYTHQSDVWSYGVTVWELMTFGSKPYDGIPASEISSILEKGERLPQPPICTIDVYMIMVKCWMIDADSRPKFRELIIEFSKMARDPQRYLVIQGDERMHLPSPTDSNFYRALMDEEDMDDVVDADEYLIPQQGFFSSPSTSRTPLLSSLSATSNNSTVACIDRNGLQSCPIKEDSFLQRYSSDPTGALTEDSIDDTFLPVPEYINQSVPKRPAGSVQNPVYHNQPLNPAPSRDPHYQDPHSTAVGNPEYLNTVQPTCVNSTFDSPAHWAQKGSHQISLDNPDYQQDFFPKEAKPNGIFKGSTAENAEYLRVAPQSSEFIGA

SMILES | DC50 | Dmax
COc1cc(N2CCC(N3CCN(C(=O)CCCCN4CCN(c5ccc6c(c5)C(=O)N(C5CCC(=O)NC5=O)C6=O)CC4)CC3)CC2)ccc1Nc1ncc(Cl)c(Nc2ccccc2P(C)(C)=O)n1 (centres unmarked) [Example 114, 5-(4-(5-(4-(1-(4-((5-chloro-4-((2-(dimethylphosphoryl)phenyl)amino)pyrimidin-2-yl)amino)-3-methoxyphenyl)piperidin-4-yl)piperazin-1-yl)-5-oxopentyl)piperazin-1-yl)-2-(2,6-dioxopiperidin-3-yl)isoindoline-1,3-dione] | 8.23 nM | 82.4%
CN(c1ccccc1Nc1nc(Nc2ccc(N3CC4(CN(CCc5ccc(NC6CCC(=O)NC6=O)cc5)C4)C3)c(F)c2)ncc1Cl)S(C)(=O)=O (centres unmarked) [Example 136, N-(2-((5-chloro-2-((4-(6-(4-((2,6-dioxopiperidin-3-yl)amino)phenethyl)-2,6-diazaspiro[3.3]heptan-2-yl)-3-fluorophenyl)amino)pyrimidin-4-yl)amino)phenyl)-N-methylmethanesulfonamide] | 68.5 nM | 79.5%
CCc1cc(Nc2ncc(Br)c(Nc3ccc4nccnc4c3P(C)(C)=O)n2)c(OC)cc1N1CCC(N2CCN(C(=O)CN3CCN(c4ccc5c(c4)C(=O)N(C4CCC(=O)NC4=O)C5)CC3)CC2)CC1 (centres unmarked) [Example 68, 3-(6-(4-(2-(4-(1-(4-((5-bromo-4-((5-(dimethylphosphoryl)quinoxalin-6-yl)amino)pyrimidin-2-yl)amino)-2-ethyl-5-methoxyphenyl)piperidin-4-yl)piperazin-1-yl)-2-oxoethyl)piperazin-1-yl)-1-oxoisoindolin-2-yl)piperidine-2,6-dione] | 13.1 nM | 64.3%
COc1cc(N2CCC(N3CCN(C(=O)CN4CCN(c5ccc6c(c5)C(=O)N(C5CCC(=O)NC5=O)C6)CC4)CC3)CC2)ccc1Nc1ncc(Cl)c(Nc2ccccc2N(C)S(C)(=O)=O)n1 (centres unmarked) [Example 130, N-(2-((5-chloro-2-((4-(4-(4-(2-(4-(2-(2,6-dioxopiperidin-3-yl)-3-oxoisoindolin-5-yl)piperazin-1-yl)acetyl)piperazin-1-yl)piperidin-1-yl)-2-methoxyphenyl)amino)pyrimidin-4-yl)amino)phenyl)-N-methylmethanesulfonamide] | 45.8 nM | 80.8%
CN(c1ccccc1Nc1nc(Nc2ccc(N3CC4(CN(C(=O)C5CCN(CC6CCN(c7ccc8c(c7)C(=O)N(C7CCC(=O)NC7=O)C8=O)CC6)CC5)C4)C3)c(F)c2)ncc1Cl)S(C)(=O)=O (centres unmarked) [Example 137, N-(2-((5-chloro-2-((4-(6-(1-((1-(2-(2,6-dioxopiperidin-3-yl)-1,3-dioxoisoindolin-5-yl)piperidin-4-yl)methyl)piperidine-4-carbonyl)-2,6-diazaspiro[3.3]heptan-2-yl)-3-fluorophenyl)amino)pyrimidin-4-yl)amino)phenyl)-N-methylmethanesulfonamide] | 9.41 nM | 92.5%
COc1cc(N2CCC(N(C)CCc3ccc(C4CCC(=O)NC4=O)cn3)CC2)c(C)cc1Nc1ncc(Br)c(Nc2ccc3nccnc3c2P(C)(C)=O)n1 (centres unmarked) [Example 74, 3-(6-(2-((1-(4-((5-bromo-4-((5-(dimethylphosphoryl)quinoxalin-6-yl)amino)pyrimidin-2-yl)amino)-5-methoxy-2-methylphenyl)piperidin-4-yl)(methyl)amino)ethyl)pyridin-3-yl)piperidine-2,6-dione] | 57.2 nM | 85.2%
COc1cc(N2CCN(CCc3ccc(C4CCC(=O)NC4=O)cc3)CC2)ccc1Nc1ncc(Cl)c(Nc2ccccc2N(C)S(C)(=O)=O)n1 (centres unmarked) [Example 133, N-(2-((5-chloro-2-((4-(4-(4-(2,6-dioxopiperidin-3-yl)phenethyl)piperazin-1-yl)-2-methoxyphenyl)amino)pyrimidin-4-yl)amino)phenyl)-N-methylmethanesulfonamide] | 39.1 nM | 78.2%

The remaining compounds from weak to strong by DC50, led by results:

DC50 | Dmax | SMILES
112 nM | 81.1% | COc1cc(N2CCC(N3CCN(CCc4ccc(CN5CCC(=O)NC5=O)cc4)CC3)CC2)ccc1Nc1ncc(Cl)c(Nc2ccccc2P(C)(C)=O)n1 [Example 111, 1-(4-(2-(4-(1-(4-((5-chloro-4-((2-(dimethylphosphoryl)phenyl)amino)pyrimidin-2-yl)amino)-3-methoxyphenyl)piperidin-4-yl)piperazin-1-yl)ethyl)benzyl)dihydropyrimidine-2,4(1H,3H)-dione]
90.4 nM | 73.5% | COc1cc(N2CCN(CCOc3ccc(C4CCC(=O)NC4=O)cc3)CC2)c(C)cc1Nc1ncc(Br)c(Nc2ccc3nccnc3c2P(C)(C)=O)n1 (centres unmarked) [Example 91, 3-(4-(2-(4-(4-((5-bromo-4-((5-(dimethylphosphoryl)quinoxalin-6-yl)amino)pyrimidin-2-yl)amino)-5-methoxy-2-methylphenyl)piperazin-1-yl)ethoxy)phenyl)piperidine-2,6-dione]
68.3 nM | 80.1% | COc1cc(N2CCC(NCCCCCc3ccc(C4CCC(=O)NC4=O)cc3)CC2)ccc1Nc1ncc(Cl)c(Nc2ccccc2N(C)S(C)(=O)=O)n1 (centres unmarked) [Example 131, N-(2-((5-chloro-2-((4-(4-((5-(4-(2,6-dioxopiperidin-3-yl)phenyl)pentyl)amino)piperidin-1-yl)-2-methoxyphenyl)amino)pyrimidin-4-yl)amino)phenyl)-N-methylmethanesulfonamide]
53.6 nM | 75.7% | COc1cc(N2CCC(N3CCN(CCC4CCN(c5ccc(N6CCC(=O)NC6=O)cc5)CC4)CC3)CC2)ccc1Nc1ncc(Cl)c(Nc2ccccc2NS(C)(=O)=O)n1 [Example 139, N-(2-((5-chloro-2-((4-(4-(4-(2-(1-(4-(2,4-dioxotetrahydropyrimidin-1(2H)-yl)phenyl)piperidin-4-yl)ethyl)piperazin-1-yl)piperidin-1-yl)-2-methoxyphenyl)amino)pyrimidin-4-yl)amino)phenyl) methanesulfonamide]
30.5 nM | 77.1% | COc1cc(N2CCC(N(C)CCOc3ccc(C4CCC(=O)NC4=O)cc3)CC2)c(C)cc1Nc1ncc(Br)c(Nc2ccc3nccnc3c2P(C)(C)=O)n1 (centres unmarked) [Example 76, 3-(4-(2-((1-(4-((5-bromo-4-((5-(dimethylphosphoryl)quinoxalin-6-yl)amino)pyrimidin-2-yl)amino)-5-methoxy-2-methylphenyl)piperidin-4-yl)(methyl)amino)ethoxy)phenyl)piperidine-2,6-dione]
16.6 nM | 82.2% | COc1cc(N2CCC(N3CCN(CCc4ccc(NC5CCC(=O)NC5=O)cc4)CC3)CC2)ccc1Nc1ncc(Cl)c(Nc2ccccc2P(C)(C)=O)n1 (centres unmarked) [Example 108]
15.2 nM | 70.1% | COc1cc(N2CCC(N(C)CCC3CCN(c4ccc(C5CCC(=O)NC5=O)cc4)CC3)CC2)c(C)cc1Nc1ncc(Br)c(Nc2ccc3nccnc3c2P(C)(C)=O)n1 (centres unmarked) [Example 78, 3-(4-(4-(2-((1-(4-((5-bromo-4-((5-(dimethylphosphoryl)quinoxalin-6-yl)amino)pyrimidin-2-yl)amino)-5-methoxy-2-methylphenyl)piperidin-4-yl)(methyl)amino)ethyl)piperidin-1-yl)phenyl)piperidine-2,6-dione]
6.37 nM | 69.2% | COc1cc(N2CCC(N3CCN(C(=O)CC4CCN(c5ccc(C6CCC(=O)NC6=O)cc5)CC4)CC3)CC2)ccc1Nc1ncc(Cl)c(Nc2ccccc2N(C)S(C)(=O)=O)n1 (centres unmarked) [Example 122, N-(2-((5-chloro-2-((4-(4-(4-(2-(1-(4-(2,6-dioxopiperidin-3-yl)phenyl)piperidin-4-yl)acetyl)piperazin-1-yl)piperidin-1-yl)-2-methoxyphenyl)amino)pyrimidin-4-yl)amino)phenyl)-N-methylmethanesulfonamide]
6.24 nM | 83.7% | CCc1cc(Nc2ncc(Br)c(Nc3ccc4nccnc4c3P(C)(C)=O)n2)c(OC)cc1N1CCC(N2CCN(C(=O)CCCCN3CCN(c4ccc5c(c4)C(=O)N(C4CCC(=O)NC4=O)C5=O)CC3)CC2)CC1 (centres unmarked) [Example 62, 5-(4-(5-(4-(1-(4-((5-bromo-4-((5-(dimethylphosphoryl)quinoxalin-6-yl)amino)pyrimidin-2-yl)amino)-2-ethyl-5-methoxyphenyl)piperidin-4-yl)piperazin-1-yl)-5-oxopentyl)piperazin-1-yl)-2-(2,6-dioxopiperidin-3-yl)isoindoline-1,3-dione]
